This is an account of results in US8642642B2, “Heterocyclic arylsulphones suitable for treating disorders that respond to modulation of the serotonin 5HT6 receptor” (Abbott Laboratories, priority 2006, dated 2014).

The term Ki denotes a measure of affinity in units of concentration, obtained from inhibition or displacement.

Assay [1] concerns the target T1, human 5-HT6 receptor (Homo sapiens, UniProt P50406).
T1 construct: expressed in transfected cells
As to the kind of experiment: Human 5-HT6 receptor binding assay (3H-LSD displacement). Particulars: membranes from HEK-293 cells, 2 nM 3H-LSD. The method, then: (§1) The substance to be tested was either dissolved in methanol/Chremophor® (BASF-AG) or in dimethyl sulfoxide and then diluted with water to the desired concentration.
The compounds were dissolved in a concentration of 10^−2 M or 10^−3 M in DMSO. Further dilutions were performed in incubation buffer.
The procedure for the binding assay was based on the method of Monsma et al. (1993) Mol Pharmacol 43: 320-327. The binding reaction was carried out in a total volume of 0.250 ml for 60 min at 37° C. Membranes from HEK-293 cells stably expressing the human 5-HT6 receptor were incubated with 2 nM ^3H-LSD in the presence or absence of various concentrations of test compound for 60 min at 37° C. Non-specific binding was defined with 100 μM Serotonin (5-HT). Assays were performed in duplicate. Bound and free radioligand was separated by filtration and bound radioactivity determined by liquid scintillation counting.
The specific ligand binding to the receptors was defined as the difference between the total binding and the nonspecific binding determined in the presence of an excess of unlabelled 5-HT. The results are expressed as a percent of control specific binding obtained in the presence of compound. The IC50 values (concentration causing a half-maximal inhibition of control specific binding) and Hill coefficients (nH) were determined by non-linear regression analysis of the competition curves using Hill equation curve fitting.
The inhibition constants (Ki) were calculated from the Cheng Prusoff equation (Ki=IC50/(1+(L/KD)), where L=concentration of radioligand in the assay, and KD=affinity of the radioligand for the receptor).

The target in assay [2] is T2, human dopamine D3 receptors (Homo sapiens, UniProt P35462).
T2 construct: expressed in transfected cells
Nature of the assay: Dopamine D3 receptor binding ([125I]-iodosulpride). Particulars: for Ki: membranes from HEK-293 cells, 0.1 nM [125I]-iodosulpride; for Ki(D2)/Ki(D3): ratio of receptor binding constants, D2L versus D3. The method, then:
as §1
Each assay mixture was run in triplicate.
The incubation buffer contained 50 mM tris, 120 mM NaCl, 5 mM KCl, 2 mM CaCl2, 2 mM MgCl2 and 0.1% bovine serum albumin, 10 μM quinolone and 0.1% ascorbic acid (prepared fresh daily). The buffer was adjusted to pH 7.4 with HCl.
After having been incubated at 25° C. for 60 minutes, the assay mixtures were filtered through a Whatman GF/B glass fiber filter under vacuum using a cell collecting device. The filters were transferred to scintillation viols using a filter transfer system. After 4 ml of Ultima Gold® (Packard) have been added, the samples were shaken for one hour and the radioactivity was then counted in a Beta-Counter (Packard, Tricarb 2000 or 2200CA). The cpm values were converted into dpm using a standard quench series and the program belonging to the instrument.
The inhibition curves were analyzed by means of iterative nonlinear regression analysis using the Statistical Analysis System (SAS) which is similar to the “LIGAND” program described by Munson and Rodbard.

SMILES strings stand for the structures.

T2 sequence (P35462 whole entry): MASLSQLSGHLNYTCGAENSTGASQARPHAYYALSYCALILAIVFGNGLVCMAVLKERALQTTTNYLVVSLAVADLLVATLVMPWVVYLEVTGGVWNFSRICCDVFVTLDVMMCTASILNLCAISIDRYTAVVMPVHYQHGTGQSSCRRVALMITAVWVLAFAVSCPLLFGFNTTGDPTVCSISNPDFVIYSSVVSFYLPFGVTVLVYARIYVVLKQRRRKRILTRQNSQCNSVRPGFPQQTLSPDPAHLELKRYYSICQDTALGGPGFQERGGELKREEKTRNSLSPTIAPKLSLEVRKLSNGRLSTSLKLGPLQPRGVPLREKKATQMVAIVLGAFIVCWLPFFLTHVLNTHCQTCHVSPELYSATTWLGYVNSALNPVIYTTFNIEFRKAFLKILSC
T1 sequence (P50406 whole entry): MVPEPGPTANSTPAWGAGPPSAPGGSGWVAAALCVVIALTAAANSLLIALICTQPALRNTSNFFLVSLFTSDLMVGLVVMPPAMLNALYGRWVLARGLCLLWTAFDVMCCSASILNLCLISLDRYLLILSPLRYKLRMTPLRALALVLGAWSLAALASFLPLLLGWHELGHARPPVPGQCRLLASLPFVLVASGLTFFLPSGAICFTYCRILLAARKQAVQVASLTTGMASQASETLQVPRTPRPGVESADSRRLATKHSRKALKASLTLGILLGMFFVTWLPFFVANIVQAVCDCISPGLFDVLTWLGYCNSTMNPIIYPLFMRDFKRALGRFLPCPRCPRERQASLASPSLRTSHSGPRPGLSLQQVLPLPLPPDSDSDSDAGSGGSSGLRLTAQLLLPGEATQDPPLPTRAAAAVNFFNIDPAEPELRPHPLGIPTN

With `CCCN1CC[C@@H](c2ccc(NS(=O)(=O)c3ccc(F)c(Br)c3F)cc2)C1.Cl` [Example 86, 3-Bromo-2,4-difluoro-N-[4-((S)-1-propyl-pyrrolidin-3-yl)-phenyl]-benzenesulfonamide hydrochloride], in assay [1], the Ki is 10 to 50 nM. In assay [2], the Ki was in the range of 1 to 10 nM; the “Ki(D2)/Ki(D3)” value was “++ (between 50 and 100)”.

In the case of `CCCN1CC[C@@H](c2ccc(NS(=O)(=O)c3ccc(C)s3)cc2)C1.Cl` [Example 90, 5-Methyl-thiophene-2-sulfonic acid [4-((S)-1-propyl-pyrrolidin-3-yl)-phenyl]-amide hydrochloride], the Ki in assay [1] and in assay [2] was 1 to 10 nM each time. For the same molecule, the “Ki(D2)/Ki(D3)” value in assay [2] is reported as “++++ (>150)”.

As to `CCCN1CC[C@@H](c2ccc(NS(=O)(=O)c3cccc(F)c3)cc2)C1.O=C(O)C(F)(F)F` [Example 97, 3-Fluoro-N-[4-((S)-1-propyl-pyrrolidin-3-yl)-phenyl]-benzenesulfonamide trifluoroacetate], the inhibition constant (Ki) in assay [1] was in the range of 1 to 10 nM. Further, in assay [2], the inhibition constant Ki was 10 to 50 nM; the “Ki(D2)/Ki(D3)” value is “++ (between 50 and 100)”.

Regarding `CCCN1CC[C@@H](c2ccc(NS(=O)(=O)c3cccc(Cl)c3)cc2)C1` [Example 98, 3-Chloro-N-[4-((S)-1-propyl-pyrrolidin-3-yl)-phenyl]-benzenesulfonamide], the inhibition constant (Ki) in assay [1] lay within 1 to 10 nM. In addition, in assay [2], the Ki lay within 10 to 50 nM; the “Ki(D2)/Ki(D3)” value is “+ (between 10 and 50)”.

For the molecule `CCCN1CC[C@@H](c2ccc(NS(=O)(=O)c3cccc(-c4csc(C)n4)c3)cc2)C1` [Example 99, 3-(2-Methyl-thiazol-4-yl)-N-[4-((S)-1-propyl-pyrrolidin-3-yl)-phenyl]-benzenesulfonamide], the Ki lay in the range of 1 to 10 nM in assay [1] and 50 to 150 nM in assay [2]. The “Ki(D2)/Ki(D3)” value in assay [2] was “+ (between 10 and 50)”.

In turn, `C=CCN1CC[C@@H](c2ccc(NS(=O)(=O)c3cccc(C(F)(F)F)c3)cc2)C1` [Example 100, N-[4-((S)-1-Allyl-pyrrolidin-3-yl)-phenyl]-3-trifluoromethyl-benzenesulfonamide] gave a Ki in assay [1] of 1 to 10 nM. Moreover, in assay [2], the inhibition constant Ki lay in the range of 10 to 50 nM; the “Ki(D2)/Ki(D3)” value is “+++ (between 100 and 150)”.

As for `CCCN1CC[C@@H](c2ccc(NS(=O)(=O)c3ccc(F)c(C(F)(F)F)c3)cc2)C1` [Example 102, 4-Fluoro-N-[4-((S)-1-propyl-pyrrolidin-3-yl)-phenyl]-3-trifluoromethyl-benzenesulfonamide], in assay [1], the Ki fell in the range of 10 to 50 nM. In assay [2], the inhibition constant Ki lay in the range of 10 to 50 nM; the “Ki(D2)/Ki(D3)” value is “++ (between 50 and 100)”.

With `CCCN1CC[C@@H](c2ccc(NS(=O)(=O)c3cc(F)cc(C(F)(F)F)c3)cc2)C1.Cl` [Example 103, 3-Fluoro-N-[4-((S)-1-propyl-pyrrolidin-3-yl)-phenyl]-5-trifluoromethyl-benzenesulfonamide hydrochloride], the inhibitory constant (Ki) in assay [1] was in the range of 10 to 50 nM. Also, in assay [2], the inhibitory constant (Ki) lay in the range of 50 to 150 nM; the “Ki(D2)/Ki(D3)” value is “++ (between 50 and 100)”.
